{"source": "ChEMBL document CHEMBL1143204", "about": "“Syntheses and in vitro evaluation of arylsulfone-based MMP inhibitors with heterocycle-derived zinc-binding groups (ZBGs)” (Bioorg Med Chem Lett, 2008)", "key": {"[1]": {"target": "72 kDa type IV collagenase (Homo sapiens, UniProt P08253)", "sequence (P08253 whole entry)": "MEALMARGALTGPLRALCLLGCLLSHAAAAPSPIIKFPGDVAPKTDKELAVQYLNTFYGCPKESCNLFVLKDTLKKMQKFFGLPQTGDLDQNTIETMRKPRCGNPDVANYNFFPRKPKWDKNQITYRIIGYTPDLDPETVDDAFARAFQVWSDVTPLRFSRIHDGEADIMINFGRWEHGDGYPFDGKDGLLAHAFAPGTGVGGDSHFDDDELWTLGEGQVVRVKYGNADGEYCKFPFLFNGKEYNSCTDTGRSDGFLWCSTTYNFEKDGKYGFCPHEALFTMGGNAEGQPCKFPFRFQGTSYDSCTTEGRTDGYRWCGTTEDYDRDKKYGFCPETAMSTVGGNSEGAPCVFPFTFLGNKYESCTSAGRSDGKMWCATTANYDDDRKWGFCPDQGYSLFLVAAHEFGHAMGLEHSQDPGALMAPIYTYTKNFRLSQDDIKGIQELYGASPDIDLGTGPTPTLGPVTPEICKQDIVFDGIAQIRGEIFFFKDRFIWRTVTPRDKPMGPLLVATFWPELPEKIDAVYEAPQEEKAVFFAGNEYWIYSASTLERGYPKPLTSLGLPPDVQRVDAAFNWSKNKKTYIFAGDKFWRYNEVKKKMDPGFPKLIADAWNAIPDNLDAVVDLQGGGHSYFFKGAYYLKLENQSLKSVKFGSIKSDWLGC", "test": "Inhibition of MMP2"}, "[2]": {"target": "Matrix metalloproteinase-9 (Homo sapiens, UniProt P14780)", "sequence (P14780 whole entry)": "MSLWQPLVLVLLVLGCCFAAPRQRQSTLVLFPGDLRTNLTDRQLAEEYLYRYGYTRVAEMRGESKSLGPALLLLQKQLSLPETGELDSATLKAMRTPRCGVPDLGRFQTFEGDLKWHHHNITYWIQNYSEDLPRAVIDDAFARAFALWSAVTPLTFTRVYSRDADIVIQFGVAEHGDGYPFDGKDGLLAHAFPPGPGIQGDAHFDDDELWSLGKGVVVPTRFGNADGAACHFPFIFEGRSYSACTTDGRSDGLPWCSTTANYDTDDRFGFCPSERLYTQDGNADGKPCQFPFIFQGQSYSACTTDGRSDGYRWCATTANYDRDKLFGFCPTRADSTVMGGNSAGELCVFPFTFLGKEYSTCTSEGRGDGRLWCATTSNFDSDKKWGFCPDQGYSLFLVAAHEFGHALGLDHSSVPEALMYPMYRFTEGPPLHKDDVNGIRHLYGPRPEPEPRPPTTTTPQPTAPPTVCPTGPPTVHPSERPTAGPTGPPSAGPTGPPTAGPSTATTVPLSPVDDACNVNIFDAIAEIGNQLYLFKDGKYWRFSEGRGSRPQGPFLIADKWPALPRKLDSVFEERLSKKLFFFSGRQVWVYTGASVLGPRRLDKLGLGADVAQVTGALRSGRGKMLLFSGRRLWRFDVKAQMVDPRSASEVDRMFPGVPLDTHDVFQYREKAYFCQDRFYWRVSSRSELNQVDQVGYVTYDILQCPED", "test": "Inhibition of MMP9"}, "Interstitial collagenase": {"target": "T1, Interstitial collagenase (Homo sapiens, UniProt P03956)", "T1 sequence (P03956 whole entry)": "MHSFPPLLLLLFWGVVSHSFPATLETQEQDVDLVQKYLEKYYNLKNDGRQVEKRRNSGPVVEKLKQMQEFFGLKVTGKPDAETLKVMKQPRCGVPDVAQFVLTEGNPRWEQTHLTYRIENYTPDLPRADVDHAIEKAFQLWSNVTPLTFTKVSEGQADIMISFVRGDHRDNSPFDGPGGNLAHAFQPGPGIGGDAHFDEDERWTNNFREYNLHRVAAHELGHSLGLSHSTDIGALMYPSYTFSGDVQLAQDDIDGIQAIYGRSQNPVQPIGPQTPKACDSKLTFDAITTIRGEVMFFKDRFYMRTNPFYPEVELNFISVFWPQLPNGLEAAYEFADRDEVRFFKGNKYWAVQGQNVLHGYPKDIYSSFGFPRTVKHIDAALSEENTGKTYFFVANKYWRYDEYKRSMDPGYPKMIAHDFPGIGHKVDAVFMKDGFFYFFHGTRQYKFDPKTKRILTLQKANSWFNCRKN", "test": "Inhibition of MMP1"}, "Stromelysin-1": {"target": "Stromelysin-1 (Homo sapiens, UniProt P08254)", "sequence (P08254 whole entry)": "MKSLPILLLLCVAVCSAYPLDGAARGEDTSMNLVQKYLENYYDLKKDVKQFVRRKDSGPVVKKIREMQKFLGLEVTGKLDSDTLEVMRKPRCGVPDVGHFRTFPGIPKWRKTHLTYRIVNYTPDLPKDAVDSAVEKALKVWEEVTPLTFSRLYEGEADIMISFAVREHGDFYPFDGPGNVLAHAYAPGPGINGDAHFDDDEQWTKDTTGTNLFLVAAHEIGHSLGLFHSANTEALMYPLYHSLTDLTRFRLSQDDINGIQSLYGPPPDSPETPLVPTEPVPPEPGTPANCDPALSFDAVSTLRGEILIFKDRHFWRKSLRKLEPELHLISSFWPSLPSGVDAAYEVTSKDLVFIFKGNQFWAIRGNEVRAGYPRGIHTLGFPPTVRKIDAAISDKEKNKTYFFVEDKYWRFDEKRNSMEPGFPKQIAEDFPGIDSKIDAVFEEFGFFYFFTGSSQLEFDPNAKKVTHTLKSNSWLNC", "test": "Inhibition of MMP3"}, "Collagenase 3": {"target": "Collagenase 3 (Homo sapiens, UniProt P45452)", "test": "Inhibition of MMP13"}}}
{"smiles": "O=C1C(S(=O)(=O)c2ccc(Oc3ccc(OC(F)(F)F)cc3)cc2)CCCCN1O", "note": "(stereo unspecified)", "values": [{"measurement": "IC50", "setting": "[1]", "value": 59.4, "unit": "nM"}, {"measurement": "IC50", "setting": "[2]", "value": 21.5, "unit": "nM"}]}
{"smiles": "COc1ccc(Oc2ccc(S(=O)(=O)Cn3cccc(O)c3=O)s2)cc1", "values": [{"measurement": "IC50", "setting": "[1]", "value": 72, "unit": "nM"}, {"measurement": "IC50", "setting": "[2]", "value": 13.9, "unit": "nM"}]}
{"smiles": "O=c1c(O)cccn1CS(=O)(=O)c1ccc(Oc2ccc(Cl)cc2)cc1", "values": [{"measurement": "IC50", "setting": "[1]", "value": 10.6, "unit": "nM"}, {"measurement": "IC50", "setting": "[2]", "value": 16.4, "unit": "nM"}]}
{"smiles": "O=C1[C@H](CS(=O)(=O)c2ccc(Oc3ccccc3)cc2)NCCCN1O", "values": [{"measurement": "IC50", "setting": "Interstitial collagenase", "value": "> 1000", "unit": "nM"}, {"measurement": "IC50", "setting": "[1]", "value": 36.8, "unit": "nM"}, {"measurement": "IC50", "setting": "Stromelysin-1", "value": 964, "unit": "nM"}, {"measurement": "IC50", "setting": "[2]", "value": 21.1, "unit": "nM"}, {"measurement": "IC50", "setting": "Collagenase 3", "value": 11, "unit": "nM"}]}
{"smiles": "COc1ccc(-c2ccc(S(=O)(=O)C3CCCCN(O)C3=O)cc2)cc1", "note": "(stereo unspecified)", "values": [{"measurement": "IC50", "setting": "[1]", "value": "> 1000", "unit": "nM"}, {"measurement": "IC50", "setting": "[2]", "value": "> 1000", "unit": "nM"}]}
{"smiles": "O=c1c(O)cccn1CS(=O)(=O)c1ccc(Oc2ccc(OC(F)(F)F)cc2)cc1", "values": [{"measurement": "IC50", "setting": "Interstitial collagenase", "value": "> 1000", "unit": "nM"}, {"measurement": "IC50", "setting": "[1]", "value": 12.6, "unit": "nM"}, {"measurement": "IC50", "setting": "Stromelysin-1", "value": 203, "unit": "nM"}, {"measurement": "IC50", "setting": "[2]", "value": 4, "unit": "nM"}, {"measurement": "IC50", "setting": "Collagenase 3", "value": 7.3, "unit": "nM"}]}
{"smiles": "COc1ccc(Oc2ccc(S(=O)(=O)Cc3cccn(O)c3=O)cc2)cc1", "values": [{"measurement": "IC50", "setting": "Interstitial collagenase", "value": "> 1000", "unit": "nM"}, {"measurement": "IC50", "setting": "Stromelysin-1", "value": 308, "unit": "nM"}, {"measurement": "IC50", "setting": "Collagenase 3", "value": 13.4, "unit": "nM"}]}
{"smiles": "Cc1ccc(S(=O)(=O)Cn2cccc(O)c2=O)cc1", "values": [{"measurement": "IC50", "setting": "[2]", "value": 809, "unit": "nM"}]}
{"smiles": "COc1ccc(-c2ccc(S(=O)(=O)Cn3cccc(O)c3=O)cc2)cc1", "values": [{"measurement": "IC50", "setting": "[1]", "value": "> 1000", "unit": "nM"}, {"measurement": "IC50", "setting": "[2]", "value": "> 1000", "unit": "nM"}]}
{"smiles": "COc1ccc(Oc2ccc(S(=O)(=O)C3CCCCCN(O)C3=O)cc2)cc1", "note": "(stereo unspecified)", "values": [{"measurement": "IC50", "setting": "[1]", "value": "> 1000", "unit": "nM"}, {"measurement": "IC50", "setting": "[2]", "value": "> 1000", "unit": "nM"}]}
